Holding throughout (test): NCI tumour cell line growth inhibition, 48 h
The test system of assay [1] is BT-549 breast.
Assay [2] concerns HOP-92 NSCLC.
For assay [3], the system named is KM12 colon.
Assay [4] has as its system MDA-MB-231 breast.
Assay [5] relates to NCI-H23 lung.
For assay [6], the system named is RXF 393 renal.
In assay [7] the test system is SF-268 CNS.
Assay [8] relates to SF-295 CNS.
For assay [9], the system named is SN12C renal.
Assay [10] deals with U251 CNS.

The structures appear in SMILES notation.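 Tested at 5 concentrations; 48 h exposure; 96-well plates; endpoints linearly interpolated, else capped at highest concentration. GI50: concentration for 50% inhibition of growth. TGI: total growth inhibition.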

Consider `CCCN1CCCC(c2ccc(Nc3nc(Nc4cc(F)ccc4C(N)=O)c4cc[nH]c4n3)c(OC)c2)C1` (centres undefined), for which the GI50 in assay [1] is 3.74 µM; in assay [2], 0.013 µM; in assay [3], 2.72 µM; in assay [4], 3.28 µM; in assay [5], 1.5 µM; in assay [6], 0.942 µM. The GI50 is 2.84 µM in assay [7], 3.42 µM in assay [8], 3.19 µM in [9] and 2.57 µM in assay [10]. Besides, the TGI in assay [1] was 7.4 µM; in assay [2], 1.39 µM; in assay [3], 5.86 µM; in assay [4], 7.7 µM; in assay [5], 5.95 µM; in assay [6], 4.48 µM. In addition, the TGI in [7] came out at 6.07 µM; in assay [8] it was 7.16 µM; in assay [9] it was 6.71 µM; in assay [10], 5.58 µM.
On to `CC(=O)Nc1ccc(S(=O)(=O)N2C(=O)CCC2C(=O)Nc2ccccc2)cc1` (centres undefined), for which the GI50 in assay [1] was 1.57 µM; in assay [2], 1.48 µM; in [3], 0.214 µM; in [4] it was 1.38 µM; in assay [5], 2.23 µM; in [6], 3.48 µM. Also, the GI50 in [7] was 3.82 µM; in assay [8], 0.33 µM; in assay [9] it was 2.68 µM; in assay [10] it was 1.59 µM. The TGI came to 14.6 µM in [1]; 5.41 µM in [2]; 11.3 µM in assay [3]; 9.49 µM in assay [4]; 18.6 µM in assay [5]; 13.9 µM in [6]. The TGI in [7] was determined as 23.3 µM; in assay [8], 3.41 µM; in assay [9], 22.6 µM; in assay [10], 13.3 µM.
For the molecule `COc1cc(-c2nn(-c3cccc(NC(=O)NCCNC(=O)c4ccccc4)c3)cc2-c2ccncc2)ccc1Cl`, the GI50 in assay [1] is 2.21 µM; in assay [2], 2.63 µM; in [3] it was 2.56 µM; in assay [4], 2.99 µM; in [5] it was 3.37 µM; in [6], 1.94 µM. In addition, the GI50 in assay [7] was 4.27 µM; in assay [8] it was 1.63 µM; in assay [9], 0.556 µM; in assay [10], 2.62 µM. The TGI in [1] is 8.05 µM; in assay [2], over 100 µM; in [3] it was 40.2 µM; in [4], over 100 µM; in assay [5], over 100 µM; in assay [6], 6.42 µM. Also, the TGI is over 100 µM in assay [7], 4.57 µM in assay [8], over 100 µM in [9] and over 100 µM in [10].
On to `Cc1cc(C)c(CNC(=O)c2cc(Cl)c3c(c2C)O[C@@](C)(C2CCC(N(C)C)CC2)O3)c(=O)[nH]1` (some centres undefined), for which the GI50 in [1] is 42 µM; in assay [2] it was 18.4 µM; in assay [3] it was over 100 µM; in assay [4] it was 59.5 µM; in assay [5], 75.6 µM; in assay [6], 15.9 µM. Moreover, the GI50 is 60.7 µM in [7], over 100 µM in assay [8], over 100 µM in assay [9] and 68 µM in [10]. In addition, the TGI is over 100 µM in assay [1]; over 100 µM in assay [2]; over 100 µM in assay [3]; over 100 µM in assay [4]; over 100 µM in assay [5]; 71.5 µM in assay [6]. Moreover, the TGI in [7], in [8], in assay [9] and in assay [10] was over 100 µM throughout.
For the molecule `CN1CC[C@H](N(C)C(=O)N2CC(c3cc(F)ccc3F)=C[C@@]2(CO)c2ccccc2)[C@H](F)C1`, the GI50 is 0.0421 µM in assay [1]; 0.143 µM in [2]; 0.0277 µM in assay [3]; 0.0112 µM in assay [4]; 0.0371 µM in assay [5]; 0.0052 µM in assay [6]. Also, the GI50 was 0.0279 µM in [7], 0.0148 µM in assay [8] and 0.0631 µM in [9]. The TGI was 37.7 µM in assay [1]; 79.7 µM in assay [2]; over 100 µM in assay [3]; 15.3 µM in assay [4]; over 100 µM in assay [5]; 5.13 µM in [6]. Further, the TGI in assay [7] was over 100 µM; in assay [8], 18.2 µM; in assay [9] it was over 100 µM; in assay [10] it was over 100 µM.
Turning to `CCN(CC)CCN1C(=O)c2cccc3cc(N)cc(c23)C1=O`, the TGI in [1] is 40.4 µM; in assay [2], over 100 µM; in assay [3], 66.9 µM; in assay [4], 51.9 µM; in [5], 20.3 µM; in assay [6] it was 34.1 µM. For the same molecule, the TGI in assay [7] is over 100 µM; in assay [8], 32.5 µM; in assay [9] it was 27.1 µM; in [10], over 100 µM.
In the case of `Cc1ccc(CNc2ccc(Cl)cc2NCc2ccc(C)c(O)c2)cc1O`, the GI50 in [1] is 6.96 µM; in [2] it was 6.91 µM; in assay [3], 6.52 µM; in assay [4], 5.63 µM; in [5] it was 7.33 µM; in assay [6] it was 7.5 µM. Further, the GI50 in [7] is 7 µM; in assay [8] it was 8.24 µM; in assay [9], 6.95 µM; in assay [10], 7.15 µM. Besides, the TGI in [1] stood at 14.1 µM; in assay [2], 14.2 µM; in assay [3], 13.8 µM; in assay [4], 12.9 µM; in assay [5], 14.8 µM; in assay [6] it was 14.5 µM. In addition, the TGI was determined as 14.2 µM in [7], 15.2 µM in assay [8], 14 µM in assay [9] and 14.2 µM in assay [10].
Regarding `CCN(CC)c1ccc(C=C2C(=O)NC(=S)NC2=O)cc1`, the GI50 in [1] is 2.27 µM; in assay [2], 2.6 µM; in [3], 4.52 µM; in [4] it was 3.49 µM; in assay [5], 2.98 µM; in assay [6], 2.07 µM. Moreover, the GI50 is 3.83 µM in assay [7], 6.21 µM in assay [8], 7.24 µM in assay [9] and 2.9 µM in [10]. For the same molecule, the TGI is 4.74 µM in [1]; 7.78 µM in [2]; 16.6 µM in assay [3]; 10.6 µM in [4]; 9.72 µM in assay [5]; 3.72 µM in [6]. The TGI was found to be 13.7 µM in assay [7], 21.2 µM in [8], 23.1 µM in [9] and 7.59 µM in assay [10].

Source of the values: PubChem BioAssay (NCI).
